Results as given in US20230265069A1, “Small Molecule Inhibitors That Block the Budding of Enveloped Viruses” (priority 2020, published 2023).

What was measured:
[1] = molecular target: T1, Tsg101-UEV (Tsg101 amino acids 1-145) (Homo sapiens, UniProt Q99816); assay: Fluorescence thermal shift (FTS) assay, binding to Tsg101-UEV; details: for Thermal shift (Tm shift) of Tsg101-UEV caused by compound: FTS dose response, result in words; for Tm shift of Tsg101 in the FTS assay on addition of DTT: with reducing agent DTT
T1 sequence (Q99816 1-145): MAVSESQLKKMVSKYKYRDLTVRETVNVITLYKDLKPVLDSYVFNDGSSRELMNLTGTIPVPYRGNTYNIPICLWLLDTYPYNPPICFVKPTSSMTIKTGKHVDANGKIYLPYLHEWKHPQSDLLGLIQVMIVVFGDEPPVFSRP
Description: The fluorescence-based thermal shift assay is based on the observation that a protein unfolds upon heating, exposing the hydrophobic residues within its tertiary structure. The unfolding temperature (Tm) is determined by the protein's primary sequence and solution environment. The FTS assay uses a fluorescent dye sensitive to a hydrophobic environment to probe protein stability and its modulation by small molecule ligands. The dye has a low fluorescence quantum yield when in a polar environment. Once in contact with the hydrophobic core normally buried within a folded protein that has become exposed during the thermal unfolding (melting) process, the quantum yield of the dye increases, thus providing a reporting signal. Furthermore, a protein's stability can be affected by ligand binding, resulting in an increase or decrease in its melting temperature. FTS assay uses the Tm shift upon binding of a ligand to identify hit compounds for drug discovery.
We screened chemical compounds using a fluorescence thermal shift (FTS) assay (27, 28) to identify small molecules that bind directly to a truncated form of Tsg101 (amino acids 1-145) which contains the Ubiquitin E2 variant (UEV) ubiquitin-binding domain (FIG. 1A, 1B, 1C). […] This truncated Tsg101, called Tsg101-UEV, was used because full-length Tsg101 has significant solubility issues in aqueous solution. Tsg101 is an adaptor protein and thus lacks a readily deployable functional assay, making FTS a tractable approach to identify interacting compounds. FTS monitors protein thermal denaturation using SYPRO® Orange, a dye which fluoresces when bound to hydrophobic surfaces, which allows monitoring of the changes in hydrophobic surface exposure during protein denaturation (27). Since ligand binding affects protein thermal stability, it can be detected through modulation of protein thermal denaturation (melting) as a shift in melting temperature (Tm). Tsg101-UEV has a well-defined melting curve suitable for FTS. We used the FTS assay to identify compounds that bind to Tsg101-UEV.
Fluorescence thermal shift (FTS) screening to identify small molecule binding to Tsg101-UEV. FTS using thermal shift elicited by the small molecule binding effect to protein stability. FTS monitors protein thermal denaturation using environment-sensitive dye Sypro® Orange which fluoresces when bound to hydrophobic surfaces, taking advantage of the changes in hydrophobic surface exposure in protein denaturation. Discovery of small molecule binding to target protein utilizes the observation that ligand binding affects protein thermal stability, and therefore can be detected through a shift in the protein's thermal denaturation (melting) temperature (Tm). We have employed FTS to reveal changes in thermodynamic properties of Tsg101 elicited by its interaction with a small molecule. […] A fluorescence dye Sypro® Orange (Invitrogen) was used for assay detection. The dye is excited at 473 nm and has a fluorescence emission at 610 nm. The dye binds to hydrophobic regions of a protein that are normally buried in a native protein structure. […] The Tsg101 fragment was premixed at a concentration of 2 μM with a 5× concentration of Sypro® Orange in HEPES buffer (100 mM HEPES, 150 mM NaCl, pH 7.5). Then 10 μl of the protein-dye mix was added to an assay plate and 10 to 50 nanoliters of compound, equal to 10 to 50 μM, were added with an acoustic transfer robot Echo550 (Labcyte, CA).

HSV-2 [2] = assay: HSV-2 release from infected Vero cells, plaque assay; details: for Titer of HSV-2 Media 48 h / Titer of HSV-2 Media, 24 h / Total Titer HSV-2 Media + Cell Lysate, 24 h: Vero cells
Vero cells = assay: Vero cell viability, 96 AQueous One Solution cell proliferation assay; assay type: cell-based
Description: Drug potency and cell toxicity. […] Cell toxicity experiments were repeated twice.

ENO1 = ENO1 (Homo sapiens, UniProt P06733); assay: FTS assay on unrelated protein ENO1; details: specificity control
ENO1, sequence (P06733 whole entry): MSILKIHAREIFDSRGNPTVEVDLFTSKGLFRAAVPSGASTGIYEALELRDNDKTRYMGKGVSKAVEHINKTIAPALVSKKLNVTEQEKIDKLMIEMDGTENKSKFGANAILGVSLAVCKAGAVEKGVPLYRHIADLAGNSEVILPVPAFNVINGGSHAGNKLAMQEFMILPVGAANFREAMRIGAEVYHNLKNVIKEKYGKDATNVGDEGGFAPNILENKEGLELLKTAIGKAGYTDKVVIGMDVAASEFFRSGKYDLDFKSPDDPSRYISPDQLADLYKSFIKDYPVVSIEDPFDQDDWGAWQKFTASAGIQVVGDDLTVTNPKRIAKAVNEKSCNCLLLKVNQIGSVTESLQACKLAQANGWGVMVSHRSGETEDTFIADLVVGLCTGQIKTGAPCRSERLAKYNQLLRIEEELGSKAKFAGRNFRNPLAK
Description: (§1) Fluorescence thermal shift (FTS) screening to identify small molecule binding to Tsg101-UEV. FTS using thermal shift elicited by the small molecule binding effect to protein stability. FTS monitors protein thermal denaturation using environment-sensitive dye Sypro® Orange which fluoresces when bound to hydrophobic surfaces, taking advantage of the changes in hydrophobic surface exposure in protein denaturation. Discovery of small molecule binding to target protein utilizes the observation that ligand binding affects protein thermal stability, and therefore can be detected through a shift in the protein's thermal denaturation (melting) temperature (Tm). We have employed FTS to reveal changes in thermodynamic properties of Tsg101 elicited by its interaction with a small molecule. The recombinant Tsg101 fragment (amino acids 1-145), prepared as described above in Materials and Methods (but without label) has a thermal unfolding profile suitable for using FTS as a primary screen assay in HTS. A fluorescence dye Sypro® Orange (Invitrogen) was used for assay detection. The dye is excited at 473 nm and has a fluorescence emission at 610 nm. The dye binds to hydrophobic regions of a protein that are normally buried in a native protein structure. […] Fluorescence was detected on a real-time PCR machine CFX384 (Bio-Rad Laboratories).

HIV-1 = details: 293T cells in culture; cited from earlier work
DHPH = assay: FTS assay on unrelated protein DHPH; details: specificity control
Description: as §1

HSV-2 [3] = assay: Transmission electron microscopy of HSV-2 infected Vero cells, particle counts; details: 105 tenatoprazole, 24 h, HSV-2, 80 cells
Description: Vero cells grown on glass cover slips were infected with HSV-2 at MOI of 0.1 pfu/cell for 2 h and then treated for 24 h with 105 μM tenatoprazole or vehicle control.
Transmission electron Microscopy. Vero cells on glass cover slips were infected with HSV-2 at a MOI of 0.1 for two hours. Then 105 μM of tenatoprazole or 18 μM Ilaprazole was added and cells incubated for 24 hours. Tissue samples were fixed in 0.1 M sodium cacodylate buffer pH 7.3 containing 2% paraformaldehyde and 2.5% glutaraldehyde and post-fixed with 2% osmium tetroxide 427 in unbuffered aqueous solution. The samples were rinsed with distilled water, en bloc stained with 3% uranyl acetate, rinsed with distilled water, dehydrated in ascending grades of ethanol, transitioned with propylene oxide, embedded in the resin mixture of Embed 812 kit and cured in a 60° C. oven. Samples were sectioned on a Leica Ultracut UC6 ultramicrotome. 1 μm thick sections were collected and stained with Toluidine Blue O and 70 nm sections were collected on 200 mesh copper grids; thin sections were stained with uranyl acetate and Reynolds lead citrate. Transmission electron microscopy (TEM) was performed on a FEI Tecnai Spirit G2.

MEK4 = molecular target: T2, MEK4 (Homo sapiens, UniProt P45985); assay: FTS assay on unrelated protein MEK4; details: specificity control
T2 sequence (P45985 1-399): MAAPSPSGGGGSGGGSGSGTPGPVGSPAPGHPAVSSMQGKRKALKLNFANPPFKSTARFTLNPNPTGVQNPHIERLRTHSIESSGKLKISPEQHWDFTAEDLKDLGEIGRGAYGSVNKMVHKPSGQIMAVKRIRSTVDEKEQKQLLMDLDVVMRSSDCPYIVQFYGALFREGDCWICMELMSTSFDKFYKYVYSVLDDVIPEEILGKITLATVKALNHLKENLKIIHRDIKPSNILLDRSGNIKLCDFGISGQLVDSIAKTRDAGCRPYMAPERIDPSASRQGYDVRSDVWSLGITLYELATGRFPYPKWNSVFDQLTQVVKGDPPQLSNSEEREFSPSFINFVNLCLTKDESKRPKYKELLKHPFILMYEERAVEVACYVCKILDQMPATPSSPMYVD
Description: as §1

HSV-1 = HSV-1 release from infected Vero cells, plaque assay
[4] = HSV-2 infected Vero cells, virus released into media, plaque assay
[5] = Tenatoprazole 52 μM, Vero cells
[6] = Tenatoprazole 79 μM, Vero cells
[7] = Tenatoprazole 105 μM, Vero cells
[8] = Tenatoprazole 131 μM, Vero cells
[9] = Tenatoprazole 157 μM, Vero cells

Which “Thermal shift (Tm shift) of Tsg101-UEV caused by compound” value [1] does the source give for Pantoprazole here?
Its value is “smallest thermal shift”.

What about the “Tm shift of Tsg101 in the FTS assay on addition of DTT” value (“Tm shift of Tsg101 in the FTS assay” below) [1] of the same substance?
Its value is “abolishes the Tm shift”.

And the “EC50 (μM) Inhibition of HSV-2 Budding at 24 h” value (HSV-2 [2]; [4])?
The value was “inactive”.

For Rabeprazole, which “Tm shift of Tsg101 in the FTS assay” value [1] is on record?
The value was “abolishes the Tm shift”.

What about the “EC50 (μM) Inhibition of HSV-2 Budding at 24 h” value (HSV-2 [2]; [4]) of the same substance?
Its value is “inactive”.

For Tenatoprazole, which “Cell toxicity at concentrations that block virus release” value (Vero cells; 24 h, result in words) is on record?
The value was “nontoxic”.

What about the “Viability of OD 490 nm, 24 h” value (Vero cells; Tenatoprazole 52 μM) of the same substance?
The value was 1.724.

And the “Viability of OD 490 nm, 24 h” value (Vero cells; Tenatoprazole 60 μM)?
Its value is 1.759.

What about the “Viability of OD 490 nm, 24 h” value (Vero cells; Tenatoprazole 79 μM) of the same substance?
Its value is 1.742.

And the “Viability of OD 490 nm, 24 h” value (Vero cells; Tenatoprazole 105 μM)?
Its value is 1.777.

What about the “Viability of OD 490 nm, 24 h” value (Vero cells; Tenatoprazole 131 μM) of the same substance?
The value was 1.714.

What about the “Viability of OD 490 nm, 24 h” value (Vero cells; Tenatoprazole 200 μM) of the same substance?
Its value is 0.872.

And the “Tm shift of ENO1” value (ENO1)?
Its value is “did not observe a Tm shift”.

What about the “Inhibition of release of infectious HIV-1 from 293T cells (earlier report)” value (HIV-1) of the same substance?
The value was “quantitatively inhibit”.

What about the “Thermal shift (Tm shift) of Tsg101-UEV caused by compound” value [1] of the same substance?
The value was “dose-dependent shift in the Tm”.

And the “Tm shift of Tsg101 in the FTS assay” value [1]?
The value was “abolishes the Tm shift”.

What about the “Tm shift of DHPH” value (DHPH) of the same substance?
Its value is “did not observe a Tm shift”.

What about the “Average number of virus particles in the nucleus” value (HSV-2 [3]) of the same substance?
Its value is 31 particles.

What about the “Virus particles in the cytoplasm” value (HSV-2 [3]) of the same substance?
Its value is “did not detect virus particles”.

And the “Titer of HSV-2 Media 48 h” value (HSV-2 [2]; Tenatoprazole 52 μM)?
Its value is 1.30E+06.

What about the “Titer of HSV-2 Media, 24 h” value (HSV-2 [2]; Tenatoprazole 52 μM) of the same substance?
The value was 6.50E+04.

What about the “Total Titer HSV-2 Media + Cell Lysate, 24 h” value (HSV-2 [2]; Tenatoprazole 52 μM) of the same substance?
The value was 4.00E+06.

And the “Titer of HSV-2 Media 48 h” value (HSV-2 [2]; Tenatoprazole 60 μM)?
The value was 5.60E+04.

What about the “Titer of HSV-2 Media, 24 h” value (HSV-2 [2]; Tenatoprazole 60 μM) of the same substance?
The value was 1.00E+03.

What about the “Total Titer HSV-2 Media + Cell Lysate, 24 h” value (HSV-2 [2]; Tenatoprazole 60 μM) of the same substance?
The value was 2.30E+04.

And the “Titer of HSV-2 Media 48 h” value (HSV-2 [2]; Tenatoprazole 79 μM)?
The value was 4.80E+03.

What about the “Titer of HSV-2 Media, 24 h” value (HSV-2 [2]; Tenatoprazole 79 μM) of the same substance?
The value was 2.50E+02.

What about the “Total Titer HSV-2 Media + Cell Lysate, 24 h” value (HSV-2 [2]; Tenatoprazole 79 μM) of the same substance?
The value was 1.50E+03.

And the “Titer of HSV-2 Media 48 h” value (HSV-2 [2]; Tenatoprazole 105 μM)?
The value was 1.80E+02.

And the “Titer of HSV-2 Media, 24 h” value (HSV-2 [2]; Tenatoprazole 105 μM)?
Its value is 0.00E+00.

And the “Total Titer HSV-2 Media + Cell Lysate, 24 h” value (HSV-2 [2]; Tenatoprazole 105 μM)?
The value was 6.00E+02.

And the “Titer of HSV-2 Media, 24 h” value (HSV-2 [2]; Tenatoprazole 131 μM)?
Its value is 0.00E+00.

And the “Total Titer HSV-2 Media + Cell Lysate, 24 h” value (HSV-2 [2]; Tenatoprazole 131 μM)?
Its value is 3.00E+02.

What about the EC50 (HSV-2 [2]; read-out: EC50 (μM) Inhibition of HSV-2 Budding at 24 h, HSV-2 infected Vero cells, virus released into media, plaque assay) of the same substance?
Its EC50 is 84 µM.

And the “Tm shift of MEK4” value (MEK4)?
The value was “did not observe a Tm shift”.

And the “Titer of HSV-1 Media, 48 H” value (HSV-1; [5])?
Its value is 1.4E+07.

And the “Titer of HSV-1 Media, 24 h” value (HSV-1; [5])?
Its value is 2.90E+05.

And the “Titer of HSV-1 Media, 48 H” value (HSV-1; [6])?
The value was 8.0E+06.

What about the “Titer of HSV-1 Media, 24 h” value (HSV-1; [6]) of the same substance?
The value was 1.30E+05.

What about the “Titer of HSV-1 Media, 48 H” value (HSV-1; [7]) of the same substance?
The value was 5.3E+05.

And the “Titer of HSV-1 Media, 24 h” value (HSV-1; [7])?
Its value is 5.40E+04.

What about the “Titer of HSV-1 Media, 48 H” value (HSV-1; [8]) of the same substance?
The value was 3.5E+04.

And the “Titer of HSV-1 Media, 24 h” value (HSV-1; [8])?
The value was 2.40E+03.

And the “Titer of HSV-1 Media, 48 H” value (HSV-1; [9])?
The value was 1.0E+02.

What about the “Titer of HSV-1 Media, 24 h” value (HSV-1; [9]) of the same substance?
The value was 1.30E+02.

And the “Drop of HSV-1 in released infectious virus” value (HSV-1; Vero cells, 24 hours after infection)?
Its value is 3 log.

What about the “Duration of inhibition of virus release” value (HSV-1; against either virus (HSV-1, HSV-2), data not shown) of the same substance?
Its value is “began to fall off after 48 h”.

What about the EC50 (HSV-1; read-out: EC50, inhibition of HSV-1 release, Vero cells, 24 h, range stated jointly for HSV-1 and HSV-2) of the same substance?
Its EC50 is 48 to 80 µM.
